Experimental data from US7695899B2, “Methods of identifying and using chemotherapeutic agents” (The Regents of the University of Colorado, a body corporate, priority 2003, dated 2010).

Test system: irradiated grp mutant larvae
Test: Survival screen of irradiated and non-irradiated grp mutant and wild-type larvae
Assay type: in vivo, Drosophila melanogaster
Settings: colchicine 1.3 μM in cornmeal-agar food; 4,000 Rads of X-rays; cumulative results of three screens; FIG. 1
Description: To obtain correctly aged larvae, embryos are collected at Day 0 from wild-type and grp mutant heterozygous adults for approximately 4 hours in the late afternoon or early evening 4 days prior to experiment. The embryos are allowed to hatch into larvae and the larvae are allowed to develop. The grp mutant heterozygote adults carry a grp mutation on one chromosome and a wild-type grp gene on a balancer chromosome. The balancer chromosome also carries a Green Fluorescent Protein (GFP) transgene.
In the morning of Day 4, food is washed from larvae by using stacked sieves (VWR; USA Standard Testing Sieve: 850, 600, 425, 180 micrometer). […]
At Day 9, the total number of pupae formed are counted (this gives the percentage of larvae that survived into pupae). In the vials with progeny from grp heterozygous parents, the grp heterozygous pupae and the wild-type pupae are identified by virtue of their expression of GFP and are not counted. At Day 14, the number of empty pupae are counted (indicating the number of pupae that eclosed into adults).
Survival is expressed as the percentage of larvae that form pupae, and the percentage of pupae that eclose into adults. […]

**Q.** `COc1cc2c(c(OC)c1OC)-c1ccc(OC)c(=O)cc1[C@@H](NC(C)=O)CC2` [colchicine] was tested. Which “survival of irradiated grp mutant larvae (grp+R) relative to non-irradiated grp mutant larvae (grp-R), wild-type irradiated larvae (SEV+R) and wild-type non-irradiated larvae (SEV-R)” value did it give?
**A.** The value was “selectively reduces the survival”.
